Test results published in patent publication US9346761B2, “Arginine methyltransferase inhibitors and uses thereof” (Epizyme, Inc., priority 2013, dated 2016).

Key:
Human CARM1 (PRMT4) = biological target: T1, Human CARM1 (PRMT4) (Homo sapiens, UniProt Q86X55); assay: CARM1 biochemical assay (3H-SAM Flashplate, peptide substrate)
T1 construct: Flag-CARM1-His was eluted with 200 ug/ml FLAG peptide in buffer A; made in house; host or cells: HEK 293F cells (BacMam virus, pFastBacMam)
T1 sequence (Q86X55 with tags, fused parts or gaps isoform Q86X55-1): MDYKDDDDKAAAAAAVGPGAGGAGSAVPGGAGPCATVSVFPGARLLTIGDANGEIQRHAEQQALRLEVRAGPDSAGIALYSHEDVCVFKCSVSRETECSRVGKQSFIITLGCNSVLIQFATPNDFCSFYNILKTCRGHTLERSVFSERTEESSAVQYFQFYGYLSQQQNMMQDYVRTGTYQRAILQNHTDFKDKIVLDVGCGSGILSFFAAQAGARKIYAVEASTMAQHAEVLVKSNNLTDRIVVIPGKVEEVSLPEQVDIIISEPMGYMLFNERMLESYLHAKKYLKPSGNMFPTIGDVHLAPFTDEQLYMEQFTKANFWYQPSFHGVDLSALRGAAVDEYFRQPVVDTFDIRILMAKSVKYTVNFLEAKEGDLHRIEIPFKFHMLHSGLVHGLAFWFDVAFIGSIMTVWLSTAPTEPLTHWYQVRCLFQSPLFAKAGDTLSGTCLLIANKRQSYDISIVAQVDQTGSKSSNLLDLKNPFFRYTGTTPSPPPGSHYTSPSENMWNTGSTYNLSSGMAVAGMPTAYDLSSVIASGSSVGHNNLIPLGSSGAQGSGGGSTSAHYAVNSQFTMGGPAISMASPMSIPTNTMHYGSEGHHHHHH
Excerpt: General Materials. S-adenosylmethionine (SAM), S-adenosylhomocysteine (SAH), bicine, Tween20, dimethylsulfoxide (DMSO), bovine skin gelatin (BSG), sodium butyrate and Tris(2-carboxyethyl)phosphine hydrochloride solution (TCEP) were purchased from Sigma-Aldrich at the highest level of purity possible. ^3H-SAM was purchase from American Radiolabeled Chemicals with a specific activity of 80 Ci/mmol. 384-well streptavidin Flashplates were purchased from PerkinElmer.
Substrates. Peptide representative of human histone H3 residues 16-30 was synthesized with an N-terminal linker-affinity tag motif and a C-terminal amide cap by 21st Century Biochemicals.
Protein Expression. Recombinant baculovirus were generated according to Bac-to-Bac kit instructions (Life Technologies). […] Infections were carried out at 37° C. for 48 hours, harvested by centrifugation, and stored at −80° C. for purification.
Protein Purification. […] Column was washed with 500 mM NaCl in buffer A and Flag-CARM1-His was eluted with 200 ug/ml FLAG peptide in buffer A. Pooled fractions were dialyzed in 20 mM Tris, 150 mM NaCl, 5% glycerol and 1 mM DTT, pH 7.8.
General Procedure for CARM1 Enzyme Assays on Peptide Substrates. The assays were all performed in a buffer consisting of 20 mM Bicine (pH=7.6), 1 mM TCEP, 0.005% BSG, and 0.002% Tween 20, prepared on the day of use. […] DMSO (1 ul) was added to Columns 11, 12, 23, 24, rows A-H for the maximum signal control and 1 ul of SAH, a known product and inhibitor of CARM1, was added to columns 11, 12, 23, 24, rows I-P for the minimum signal control. A cocktail (40 ul) containing the CARM1 enzyme was added by Multidrop Combi (Thermo-Fisher). The compounds were allowed to incubate with CARM1 for 30 min at room temperature, then a cocktail (10 ul) containing ^3H-SAM and peptide was added to initiate the reaction (final volume=51 ul). […] The assays were stopped by the addition of non-radiolabeled SAM (10 ul) to a final concentration of 300 uM, which dilutes the ^3H-SAM to a level where its incorporation into the peptide substrate is no longer detectable. 50 ul of the reaction in the 384-well polypropylene plate was then transferred to a 384-well Flashplate and the biotinylated peptides were allowed to bind to the streptavidin surface for at least 1 hour before being washed once with 0.1% Tween20 in a Biotek ELx405 plate washer. The plates were then read in a PerkinElmer TopCount plate reader to measure the quantity of ^3H-labeled peptide bound to the Flashplate surface, measured as disintegrations per minute (dpm) or alternatively, referred to as counts per minute (cpm).
Where dpm=disintegrations per minute, cmpd=signal in assay well, and min and max are the respective minimum and maximum signal controls.
Where top and bottom are the normally allowed to float, but may be fixed at 100 or 0 respectively in a 3-parameter fit. The Hill Coefficient normally allowed to float but may also be fixed at 1 in a 3-parameter fit. Y is the % inhibition and X is the compound concentration.

Full-length human PRMT6 = biological target: T2, Full-length human PRMT6 (Homo sapiens, UniProt Q96LA8); assay: PRMT6 biochemical assay (3H-SAM Flashplate, peptide substrate)
T2 construct: Flag-PRMT6-His was eluted with 200 ug/ml FLAG peptide in the same buffer; made in house; host or cells: HEK 293F cells (BacMam virus, pFastBacMam)
T2 sequence (Q96LA8 with tags, fused parts or gaps): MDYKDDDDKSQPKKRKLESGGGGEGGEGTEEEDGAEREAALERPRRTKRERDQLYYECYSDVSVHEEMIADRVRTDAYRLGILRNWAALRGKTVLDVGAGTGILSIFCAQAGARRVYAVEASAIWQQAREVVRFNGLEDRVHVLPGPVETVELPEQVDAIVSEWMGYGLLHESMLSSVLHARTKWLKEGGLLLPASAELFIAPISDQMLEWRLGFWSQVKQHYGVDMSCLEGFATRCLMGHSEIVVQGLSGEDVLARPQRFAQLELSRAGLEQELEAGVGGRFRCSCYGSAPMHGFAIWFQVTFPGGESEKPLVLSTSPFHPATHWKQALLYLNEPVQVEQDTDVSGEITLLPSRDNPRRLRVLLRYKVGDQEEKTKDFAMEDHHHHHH
How it was run: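 Read-out is 3H-methylated histone H4 (36-50) peptide bound to streptavidin Flashplates after a cold-SAM stop. Baculovirus-expressed Flag-PRMT6-His met compound for 30 min at room temperature before SAM and peptide; Bicine pH 7.6 buffer. IC50 fitted to % inhibition normalized to SAH (min) and DMSO (max).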

SMILES | IC50 (Human CARM1 (PRMT4)) | IC50 (Full-length human PRMT6)
COCCn1cc(CN(C)CCN)c(-c2ccc(F)cc2)n1 [Compound 5] | > 10 µM | 0.101 to 1 µM
COCCn1ncc(CN(C)CCN)c1-c1ccc(F)cc1 [Compound 6] | > 10 µM | 0.101 to 1 µM
CCn1ncc(CN(C)CCNC)c1-c1ccc(F)cc1 [Compound 7] | 1.01 to 3 µM | < 0.1 µM
CCn1cc(CN(C)CCNC)c(-c2ccc(F)cc2)n1 [Compound 8] | 3.01 to 10 µM | 0.101 to 1 µM
CN(CCN)Cc1c[nH]nc1-c1ccc(Cl)cc1 [Compound 95] | 0.101 to 1 µM | < 0.1 µM
CN(CCN)Cc1c[nH]nc1-c1ccc(OCC(F)(F)F)cc1 [Compound 96] | < 0.1 µM | < 0.1 µM
CC(C)Oc1ccc(-c2n[nH]cc2CN(C)CCN)cc1F [Compound 97] | 0.101 to 1 µM | < 0.1 µM
CN(CCN)Cc1c[nH]nc1-c1ccc(C2CCOCC2)cc1 [Compound 98] | 0.101 to 1 µM | < 0.1 µM
CN(CCN)Cc1c[nH]nc1-c1ccc(F)cc1F [Compound 99] | 3.01 to 10 µM | < 0.1 µM
CN(CCN)Cc1n[nH]cc1-c1ccc(C#N)cc1 [Compound 100] | 3.01 to 10 µM | < 0.1 µM
CC(C)c1ccc(-c2c[nH]nc2CN(C)CCN)cc1 [Compound 101] | 3.01 to 10 µM | 0.101 to 1 µM
CN(CCN)Cc1n[nH]cc1-c1ccc(Cl)cc1 [Compound 102] | 1.01 to 3 µM | < 0.1 µM
CN(CCN)Cc1n[nH]cc1-c1ccc(C(F)(F)F)cc1 [Compound 103] | 1.01 to 3 µM | < 0.1 µM
CN(CCN)Cc1n[nH]cc1-c1ccc(C2CC2)cc1 [Compound 104] | 1.01 to 3 µM | < 0.1 µM
CN(CCN)Cc1n[nH]cc1-c1ccc(OC(F)(F)F)cc1 [Compound 105] | 3.01 to 10 µM | < 0.1 µM
CN(CCN)Cc1c[nH]nc1-c1cc(F)ccc1Cl [Compound 106] | > 10 µM | < 0.1 µM
COc1ccc(-c2n[nH]cc2CN(C)CCN)c(F)c1 [Compound 107] | 1.01 to 3 µM | < 0.1 µM
Cc1ccc(-c2n[nH]cc2CN(C)CCN)c(F)c1 [Compound 108] | 1.01 to 3 µM | < 0.1 µM
COc1ccccc1-c1n[nH]cc1CN(C)CCN [Compound 109] | 3.01 to 10 µM | 0.101 to 1 µM

SMILES | IC50 (Human CARM1 (PRMT4)) | IC50 (Full-length human PRMT6)
Cc1cc(C#N)ccc1-c1n[nH]cc1CN(C)CCN [Compound 110] | 3.01 to 10 µM | < 0.1 µM
CN(CCN)Cc1c[nH]nc1-c1cc(F)cc(F)c1 [Compound 111] | 0.101 to 1 µM | < 0.1 µM
CC(=O)c1cccc(-c2n[nH]cc2CN(C)CCN)c1 [Compound 112] | 1.01 to 3 µM | < 0.1 µM
CN(CCN)Cc1cnn(CC(O)CO)c1-c1ccc(F)cc1 (stereo not drawn) [Compound 113] | > 10 µM | 0.101 to 1 µM
CN(CCN)Cc1c[nH]nc1-c1ccc(OC2CC2)cc1 [Compound 114] | 0.101 to 1 µM | < 0.1 µM
CC(O)c1ccc(-c2n[nH]cc2CN(C)CCN)cc1 (stereo not drawn) [Compound 115] | 3.01 to 10 µM | < 0.1 µM
CN(CCN)Cc1c[nH]nc1-c1ccc(C2CC2)cc1 [Compound 116] | 1.01 to 3 µM | < 0.1 µM
CN(CCN)Cc1c[nH]nc1-c1ccc(C(F)(F)F)c(Cl)c1 [Compound 117] | 0.101 to 1 µM | < 0.1 µM
CN(CCN)Cc1c[nH]nc1-c1ccc(Cl)c(F)c1 [Compound 118] | 0.101 to 1 µM | < 0.1 µM
CN(CCN)Cc1n[nH]cc1-c1ccc(OC2CC2)cc1 [Compound 119] | 0.101 to 1 µM | < 0.1 µM
CN(CCN)Cc1c[nH]nc1-c1cc(F)cc(Cl)c1 [Compound 121] | 0.101 to 1 µM | < 0.1 µM
CN(CCN)Cc1c[nH]nc1-c1cccc(Cl)c1 [Compound 122] | 0.101 to 1 µM | < 0.1 µM
CN(CCN)Cc1c[nH]nc1-c1cccc(Cl)c1F [Compound 123] | 1.01 to 3 µM | < 0.1 µM
CN(CCN)Cc1c[nH]nc1-c1ccc(F)c(Cl)c1 [Compound 124] | 0.101 to 1 µM | < 0.1 µM
COc1ccc(-c2n[nH]cc2CN(C)CCN)cc1Cl [Compound 125] | 1.01 to 3 µM | < 0.1 µM
Cc1ccc(-c2n[nH]cc2CN(C)CCN)cc1Cl [Compound 126] | 0.101 to 1 µM | < 0.1 µM
COc1cc(Cl)cc(-c2n[nH]cc2CN(C)CCN)c1 [Compound 127] | 1.01 to 3 µM | < 0.1 µM
CN(CCN)Cc1cn(CC2CCOCC2)nc1-c1ccc(F)cc1 [Compound 128] | > 10 µM | 1.01 to 3 µM
Cc1c(F)cccc1-c1n[nH]cc1CN(C)CCN [Compound 129] | 1.01 to 3 µM | < 0.1 µM

SMILES | IC50 (Human CARM1 (PRMT4)) | IC50 (Full-length human PRMT6)
COc1cccc(-c2n[nH]cc2CN(C)CCN)c1 [Compound 130] | 1.01 to 3 µM | < 0.1 µM
Cc1cccc(-c2n[nH]cc2CN(C)CCN)c1 [Compound 131] | 1.01 to 3 µM | < 0.1 µM
CN(CCN)Cc1c[nH]nc1-c1ccc(Cl)cc1F [Compound 132] | 1.01 to 3 µM | < 0.1 µM
Cc1cc(Cl)ccc1-c1n[nH]cc1CN(C)CCN [Compound 133] | 3.01 to 10 µM | < 0.1 µM
COc1ccc(-c2n[nH]cc2CN(C)CCN)cc1F [Compound 134] | 1.01 to 3 µM | < 0.1 µM
CN(CCN)Cc1c[nH]nc1-c1ccc(C(F)(F)F)cc1Cl [Compound 135] | > 10 µM | < 0.1 µM
CCNC(=O)c1ccc(-c2n[nH]cc2CN(C)CCN)cc1 [Compound 136] | 1.01 to 3 µM | < 0.1 µM
CN(CCN)Cc1c[nH]nc1-c1cc(Cl)cc(Cl)c1 [Compound 137] | 0.101 to 1 µM | < 0.1 µM
CN(CCN1CCCC1)Cc1c[nH]nc1-c1ccc(C#N)cc1 [Compound 139] | > 10 µM | 
CCN(C)C(=O)c1ccc(-c2n[nH]cc2CN(C)CCN)cc1 [Compound 163] |  | < 0.1 µM
CC(C)CN(C)C(=O)c1ccc(-c2n[nH]cc2CN(C)CCN)cc1 [Compound 164] |  | < 0.1 µM
CCOc1ccc(-c2n[nH]cc2CN(C)CCN)cc1 [Compound 166] |  | < 0.1 µM
COCCOc1ccc(-c2n[nH]cc2CN(C)CCN)cc1 [Compound 167] |  | < 0.1 µM
Cc1[nH]nc(-c2ccc(F)cc2)c1CN(C)CCN [Compound 169] |  | < 0.1 µM
CC(C)Cc1ccc(-c2c[nH]nc2CN(C)CCN)cc1 [Compound 170] |  | < 0.1 µM
NCCN(CCO)Cc1c[nH]nc1-c1ccc(F)cc1 [Compound 171] |  | 1.01 to 3 µM
CN(CCN)Cc1c[nH]nc1-c1ccc(OCCN2CCOCC2)cc1 [Compound 172] |  | < 0.1 µM
CN(CCN)Cc1c[nH]nc1-c1ccc2c(c1)NC(=O)CO2 [Compound 173] |  | < 0.1 µM
